Source: patent publication US20100093760A1, “METHODS FOR IDENTIFYING COMPOUNDS THAT MODULATE CELL SIGNALING AND METHODS EMPLOYING SUCH COMPOUNDS” (The General Hospital Corporation, priority 2006, published 2010)
Entries after “also recorded” stand apart in the source; their conditions may differ. Like-named read-outs stand apart in the source and are kept apart here.

Assays:
zebrafish embryos [1] = assay type: in vivo; conditions: for phenotype: 8 ng of either morpholino alone, 24 hpf; for % Dorsalized / Dorsalized, number of embryos / Early lethality, number of embryos / Total survivors: treatment at 3 hpf
zebrafish embryos [2] = assay type: in vivo; conditions: zebrafish, in vivo
Procedure: According to one example of the whole animal-based screening methods of the invention, 1-2 hour old zebrafish embryos are arrayed in the wells of 96-well plates, three embryos per well. A chemical library, which is comprised of tens of thousands of diverse small molecules, is then pin-transferred into the wells at a final concentration of ˜2 to 10 uM. Embryos are observed over the course of next 24-48 hours and scored under a dissecting microscope for phenotype consistent with loss of BMP signaling (dorsalized embryos, FIG. 1) or with the loss of nodal signaling (cyclopia, FIG. 2).
Small molecule screening in zebrafish was performed as previously described (Peterson et al., Nat. Biotechnol. 22:595-599, 2004) with several modifications. Pairs of wild-type zebrafish were mated, and newly-fertilized eggs were arrayed in triplicate in 96-well plates containing E3 buffer. At 4 hours post fertilization (hpf), compounds were added to wells at 5-10 μM. Embryos were incubated at 28.5° C., and gross morphology of embryos was examined at 12, 24, and 48 hpf for dorsalization or ventralization of embryonic axis, as previously described (Mullins et al., Development 123:81-93, 1996). In total, 7,570 compounds were screened, including synthetic screening compounds (Chembridge Corporation, 5,580 small molecules) and known bioactive compounds (Microsource Discovery Systems, 1,840 small molecules and Sigma-Aldrich, 150 small molecules). For follow up studies, Compound C/Dorsomorphin and Ara-A (adenine 9-β-D-arabinofurano-side) were purchased from Sigma (St. Louis, Mo.), and C75 was purchased from EMD Biosciences (San Diego, Calif.).

[3] = tested on: hepcidin (HAMP) and Id1 mRNA; test: Hepcidin and Id1 mRNA qRT-PCR in Hep3B cells; assay type: cell-based, human
Procedure: Quantitative RT-PCR was performed for mRNA encoding Id1 or human hepcidin (HAMP) as previously described (Babitt et al., Nat. Genet. 38:531-539, 2006; Yu et al., J. Biol. Chem. 280:24443-24450, 2005), and normalized to 18S ribosomal RNA (rRNA) or β-actin mRNA levels.

MAPK p38 = test: Immunoblot of BMP4-mediated MAPK p38 phosphorylation in PASMCs; assay type: cell-based, murine; conditions: noggin 100-200 ng/ml pretreatment 30 minutes
[4] = tested on: BMP-mediated SMAD1/5/8 phosphorylation; test: Immunoblot of BMP-induced SMAD1/5/8 phosphorylation in PASMCs; assay type: cell-based, murine; conditions: PASMCs, noggin 100-200 ng/ml pretreatment 30 minutes
Procedure: Wild-type and BMPR-II-deficient PASMC were isolated as previously described (Yu et al., J. Biol. Chem. 280:24443-24450, 2005), and cultured in RPMI medium (Invitrogen) supplemented with 10% FBS. C2C12 cells (American Type Culture Collection, Manassas, Va.) were cultured in DMEM supplemented with glutamine and 10% FBS. HepG2 cells and Hep3B cells (ATCC) were cultured in Minimal Essential Alpha Medium with L-glutamine (α-MEM, Invitrogen) containing 10% FBS. For studies of SMAD activation in vitro, PASMC were incubated in 0.5% FCS RPMI for 24 hours, followed by preincubation with drug compounds, noggin, or vehicle for 30 minutes, followed the addition of recombinant BMPs 2, 4, 6, or 7, or TGF-β1 or Activin A (R&D Systems, Minneapolis, Minn.) for 30 minutes.
Cell extracts or tissues were mechanically homogenized in SDS-lysis buffer (62.5 mM Tris-HCl (pH 6.8), 2% SDS, 10% glycerol, 50 mM DTT, 0.01% bromophenol blue); separated by SDS-PAGE; immunoblotted with anti-phospho-SMAD1/5/8, anti-phospho-SMAD2 (Cell Signaling, Beverly, Mass.), or anti-α-tubulin (Upstate/Millipore, Billerica, Mass.) Abs; and visualized using ECL Plus (GE Healthcare, Piscataway, N.J.). Levels of immunoreactive proteins were quantitated by ImageQuant software on a Storm phosphorimager (GE Healthcare).
The statistical significance of compared measurements was measured using the student's two-tailed T-test or one-way ANOVA with Bonferroni correction. Hill plot analysis of Compound C/Dorsomorphin inhibition of SMAD1/5/8 phosphorylation was performed using GraFit software (Erithacus Software, Surrey, England).

“αA: splice-targeting morpholino against zebrafish AMPK α-subunit ortholog αA (CACCCTGGAAAGTT TTACCTTTGAC) (antisense CACCCTGGAAAGTTTTACCTTTGAC; all phosphorodiamidate morpholino (PMO)) [reference compound]” was tested, and the phenotype (zebrafish embryos [1]) was “did not exhibit any phenotype”.

`NC(=O)c1ccc(-c2nc(-c3ccc4c(c3)OCO4)c(-c3ccccn3)[nH]2)cc1` [SB-431542, reference compound] was tested, and the zebrafish embryo phenotype (zebrafish embryos [1]; known specific inhibitor of the TGF-β/activin/nodal branch) was “cyclopia, but not dorsalization”.

In the case of “αB: splice-targeting morpholino against zebrafish AMPK α-subunit ortholog αB (TAAATGAACA GACTTAACTCTTCAC) (antisense TAAATGAACAGACTTAACTCTTCAC; all phosphorodiamidate morpholino (PMO)) [reference compound]”, the phenotype (zebrafish embryos [1]) is reported as “did not exhibit any phenotype”.

In the case of `C=C1C(=O)OC(CCCCCCCC)C1C(=O)O` (stereo not shown) [Compound C75, reference compound], the “% Dorsalized” value (zebrafish embryos [1]; C75 4 μM) is reported as 0%, the “Dorsalized, number of embryos” value (zebrafish embryos [1]; C75 4 μM) is reported as 0 and the “Early lethality, number of embryos” value (zebrafish embryos [1]; C75 4 μM) is reported as 0. For the same molecule, the Total survivors (zebrafish embryos [1]; C75 4 μM) was 20, the “% Dorsalized” value (zebrafish embryos [1]; C75 20 μM) was 0% and the “Dorsalized, number of embryos” value (zebrafish embryos [1]; C75 20 μM) was 0. For the same molecule, the “Early lethality, number of embryos” value (zebrafish embryos [1]; C75 20 μM) was 0, the Total survivors (zebrafish embryos [1]; C75 20 μM) was 40 and the “% Dorsalized” value (zebrafish embryos [1]; C75 40 μM) was 0%. For the same molecule, the “Dorsalized, number of embryos” value (zebrafish embryos [1]; C75 40 μM) was 0, the “Early lethality, number of embryos” value (zebrafish embryos [1]; C75 40 μM) was 0 and the Total survivors (zebrafish embryos [1]; C75 40 μM) was 40. The “% Dorsalized” value (zebrafish embryos [1]; C75 100 μM) was 0%, the “Dorsalized, number of embryos” value (zebrafish embryos [1]; C75 100 μM) was 0 and the “Early lethality, number of embryos” value (zebrafish embryos [1]; C75 100 μM) was 20. For the same molecule, the Total survivors (zebrafish embryos [1]; C75 100 μM) was 0, the “% Dorsalized” value (zebrafish embryos [1]; C75 200 μM) was 0% and the “Dorsalized, number of embryos” value (zebrafish embryos [1]; C75 200 μM) was 0. For the same molecule, the “Early lethality, number of embryos” value (zebrafish embryos [1]; C75 200 μM) was 40, the Total survivors (zebrafish embryos [1]; C75 200 μM) was 0 and the “% Dorsalized” value (zebrafish embryos [1]; C75 400 μM) was 0%. The “Dorsalized, number of embryos” value (zebrafish embryos [1]; C75 400 μM) was 0, the “Early lethality, number of embryos” value (zebrafish embryos [1]; C75 400 μM) was 40 and the Total survivors (zebrafish embryos [1]; C75 400 μM) was 0. The dorsalization phenotype (zebrafish embryos [1]; C75, any concentration tested (1-100 μg/ml), from 3 hpf) was “without evidence of dorsalization”, the “dorsalization by structurally-unrelated inhibitors of AMPK activity” value (zebrafish embryos [2]) was “did not dorsalize zebrafish embryos” and the “toxicity of structurally-unrelated inhibitors of AMPK activity” value (zebrafish embryos [2]) was “non-specific toxicity such as developmental delay and death”.

For `Nc1ncnc2c1ncn2[C@@H]1O[C@H](CO)[C@@H](O)[C@@H]1O` [Ara-A, adenine 9-β-D-arabinofurano-side, reference compound], the “dorsalization by structurally-unrelated inhibitors of AMPK activity” value (zebrafish embryos [2]) was “did not dorsalize zebrafish embryos”, the “toxicity of structurally-unrelated inhibitors of AMPK activity” value (zebrafish embryos [2]) was “non-specific toxicity such as developmental delay and death” and the “effect on BMP4-induced hepcidin mRNA expression” value ([3]; Ara-A 250 μM 30 minutes before BMP4 20 ng/ml) was “did not impair; also recorded: did not significantly affect”. For the same molecule, the “lowering of baseline hepcidin expression” value ([3]; Ara-A 250 μM alone) was 40%.

B1: noggin: soluble BMP antagonist; preferential inhibitor of BMP2 and BMP4 activity (protein, UniProt Q13253 28-232, looked up)
Noggin: QHYLHIRPAPSDNLPLVDLIEHPDPIFDPKEKDLNETLLRSLLGGHYDPGFMATSPPEDRPGGGGGAAGGAEDLAELDQLLRQRPSGAMPSEIKGLEFSEGLAQGKKQRLSKKLRRKLQMWLWSQTFCPVLYAWNDLGSRFWPRYVKVGSCFSKRSCSVPEGMVCKPSKSVHLTVLRWRCQRRGGQRCGWIPIQYPIISECKCSC
B1 was tested, and the “effect on BMP4-mediated phosphorylation of MAPK p38” value (MAPK p38) was “inhibited” and the “effect on BMP4-mediated phosphorylation of SMAD1/5/8” value [4] was “inhibited”.

B2: BMP4: recombinant bone morphogenetic protein ligand (R&D Systems) (protein, UniProt P12644 293-408, looked up)
Bone morphogenetic protein 4: SPKHHSQRARKKNKNCRRHSLYVDFSDVGWNDWIVAPPGYQAFYCHGDCPFPLADHLNSTNHAIVQTLVNSVNSSIPKACCVPTELSAISMLYLDEYDKVVLKNYQEMVVEGCGCR
For B2, the “increase in hepcidin mRNA” value ([3]; BMP4 20 ng/ml, four hours) was 35 fold.
